Patent publication US9708314B2, “Heterocyclic amide compound” (NISSAN CHEMICAL INDUSTRIES, LTD., priority 2013, dated 2017)

Tests used:
Type in all cases: in vivo
[1] = test system: Echinochloa crus-galli var. crus-galli; experiment: Test Example 3: herbicidal effect by application to foliage (Wagner pot, water depth 0.1-0.5 cm); details: Nineteenth Table; application to foliage; application herbicide amount 320 g/ha
In short: (§1)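 Three weeks after spraying, each species was graded 0–5 for herbicidal ratio, 5 being 90% or more. Application: water-diluted emulsifiable concentrate at a fixed g/ha to foliage of 14-day-old greenhouse (25–30 °C) plants in alluvial soil.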

Leptochloa chinensis = experiment: as above; details: Nineteenth Table; application to foliage; application herbicide amount 320 g/ha
In short: as §1

Cyperus difformis = experiment: as above; details: Nineteenth Table; application to foliage; application herbicide amount 320 g/ha
In short: as §1

[2] = test system: Beta vulgaris ssp. vulgaris; experiment: Test Example 4: effect on crop by application to foliage (diluvial soil, plastic box); details: 320 g/ha; for f (Beta vulgaris ssp. vulgaris) effect on crop grade: foliage application
In short: (§2)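 Read-out is a 0–5 visual grade of herbicidal ratio (5: ≥90%, almost withered; 0: ≤5%) taken three weeks after treatment. Compound was applied as a diluted emulsion to stem and leaf parts of 14-day greenhouse-grown plants (25° C. to 30° C.) at rates expressed as g/ha.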

Triticum aestivum = experiment: as above; details: 320 g/ha; for e (Triticum aestivum) effect on crop grade: foliage application
In short: as §2

[3] = test system: directly sowed Oryza sativa; experiment: as above; details: 320 g/ha; for d (directly sowed Oryza sativa) effect on crop grade: foliage application
In short: as §2

Zea mays = experiment: as above; details: 320 g/ha; for b (Zea mays) effect on crop grade: foliage application
In short: as §2

Brassica campestris L. = experiment: as above; details: 320 g/ha; for g (Brassica campestris L.) effect on crop grade: foliage application
In short: as §2

Glycine max = experiment: as above; details: 320 g/ha; for c (Glycine max) effect on crop grade: foliage application
In short: as §2

Veronica persica = experiment: Test Example 4: herbicidal effect by application to foliage (diluvial soil, plastic box); details: 320 g/ha; for R (Veronica persica) herbicidal effect grade: foliage application
In short: as §2

Lolium multiflorum Lam. = experiment: as above; details: 320 g/ha; for K (Lolium multiflorum Lam.) herbicidal effect grade: foliage application
In short: as §2

Abutilon theophrasti = experiment: as above; details: 320 g/ha; for M (Abutilon theophrasti) herbicidal effect grade: foliage application
In short: as §2

Setaria viridis = experiment: as above; details: 320 g/ha; for G (Setaria viridis) herbicidal effect grade: foliage application
In short: as §2

Chenopodium album = experiment: as above; details: 320 g/ha; for O (Chenopodium album) herbicidal effect grade: foliage application
In short: as §2

[4] = test system: Echinochloa crus-galli var. crus-galli; experiment: as above; details: 320 g/ha; for H (Echinochloa crus-galli var. crus-galli) herbicidal effect grade: foliage application
In short: as §2

Avena fatua = experiment: as above; details: 320 g/ha; for I (Avena fatua) herbicidal effect grade: foliage application
In short: as §2

Digitaria ciliaris = experiment: as above; details: 320 g/ha; for F (Digitaria ciliaris) herbicidal effect grade: foliage application
In short: as §2

Stellaria media = experiment: as above; details: 320 g/ha; for P (Stellaria media) herbicidal effect grade: foliage application
In short: as §2

Galium spurium = experiment: as above; details: 320 g/ha; for Q (Galium spurium) herbicidal effect grade: foliage application
In short: as §2

Amaranthus retroflexus = experiment: as above; details: 320 g/ha; for N (Amaranthus retroflexus) herbicidal effect grade: foliage application
In short: as §2

Apera spica-venti. = experiment: as above; details: 320 g/ha; for L (Apera spica-venti.) herbicidal effect grade: foliage application
In short: as §2

Alopecurus myosuroides = experiment: as above; details: 320 g/ha; for J (Alopecurus myosuroides) herbicidal effect grade: foliage application
In short: as §2

SMILES | H (herbicidal effect grade) [1] | D (herbicidal effect grade) (Leptochloa chinensis) | E (herbicidal effect grade) (Cyperus difformis) | f (Beta vulgaris ssp. vulgaris) effect on crop grade [2] | e (Triticum aestivum) effect on crop grade (Triticum aestivum) | d (directly sowed Oryza sativa) effect on crop grade [3] | b (Zea mays) effect on crop grade (Zea mays) | g (Brassica campestris L.) effect on crop grade (Brassica campestris L.) | c (Glycine max) effect on crop grade (Glycine max) | R (Veronica persica) herbicidal effect grade (Veronica persica) | K (Lolium multiflorum Lam.) herbicidal effect grade (Lolium multiflorum Lam.) | M (Abutilon theophrasti) herbicidal effect grade (Abutilon theophrasti) | G (Setaria viridis) herbicidal effect grade (Setaria viridis) | O (Chenopodium album) herbicidal effect grade (Chenopodium album) | H (Echinochloa crus-galli var. crus-galli) herbicidal effect grade [4] | I (Avena fatua) herbicidal effect grade (Avena fatua) | F (Digitaria ciliaris) herbicidal effect grade (Digitaria ciliaris) | P (Stellaria media) herbicidal effect grade (Stellaria media) | Q (Galium spurium) herbicidal effect grade (Galium spurium) | N (Amaranthus retroflexus) herbicidal effect grade (Amaranthus retroflexus) | further results
CSCCNc1nnc2c(C(=O)Nc3nnnn3C)ccc(C(F)(F)F)n12 [2-080] | 4 (Herbicidal ratio of 70% or more and less than 90%) | 5 (Herbicidal ratio of 90% or more (almost completely withered)) | 5 (Herbicidal ratio of 90% or more (almost completely withered)) | – | – | – | – | – | – | – | – | – | – | – | – | – | – | – | – | – | effect on crop, f (Beta vulgaris ssp. vulgaris) ([2]; application to foliage): 5 (Herbicidal ratio of 90% or more (almost completely withered)); effect on crop, e (Triticum aestivum) (Triticum aestivum; application to foliage): 0 (Herbicidal ratio of 5% or less (almost no effect)); effect on crop, d (directly sowed Oryza sativa) ([3]; application to foliage): 4 (Herbicidal ratio of 70% or more and less than 90%); effect on crop, b (Zea mays) (Zea mays; application to foliage): 3 (Herbicidal ratio of 40% or more and less than 70%); effect on crop, g (Brassica campestris L.) (Brassica campestris L.; application to foliage): 5 (Herbicidal ratio of 90% or more (almost completely withered)); effect on crop, c (Glycine max) (Glycine max; application to foliage): 0 (Herbicidal ratio of 5% or less (almost no effect)); herbicidal effect, R (Veronica persica) (Veronica persica; application to foliage): 5 (Herbicidal ratio of 90% or more (almost completely withered)); herbicidal effect, K (Lolium multiflorum Lam.) (Lolium multiflorum Lam.; application to foliage): 0 (Herbicidal ratio of 5% or less (almost no effect)); herbicidal effect, M (Abutilon theophrasti) (Abutilon theophrasti; application to foliage): 5 (Herbicidal ratio of 90% or more (almost completely withered)); herbicidal effect, G (Setaria viridis) (Setaria viridis; application to foliage): 3 (Herbicidal ratio of 40% or more and less than 70%); herbicidal effect, O (Chenopodium album) (Chenopodium album; application to foliage): 5 (Herbicidal ratio of 90% or more (almost completely withered)); herbicidal effect, H (Echinochloa crus-galli var. crus-galli) ([4]; application to foliage): 5 (Herbicidal ratio of 90% or more (almost completely withered)); herbicidal effect, I (Avena fatua) (Avena fatua; application to foliage): 1 (Herbicidal ratio of 5% or more and less than 20%); herbicidal effect, F (Digitaria ciliaris) (Digitaria ciliaris; application to foliage): 5 (Herbicidal ratio of 90% or more (almost completely withered)); herbicidal effect, P (Stellaria media) (Stellaria media; application to foliage): 4 (Herbicidal ratio of 70% or more and less than 90%); herbicidal effect, Q (Galium spurium) (Galium spurium; application to foliage): 4 (Herbicidal ratio of 70% or more and less than 90%); herbicidal effect, N (Amaranthus retroflexus) (Amaranthus retroflexus; application to foliage): 5 (Herbicidal ratio of 90% or more (almost completely withered)); herbicidal effect, L (Apera spica-venti.) (Apera spica-venti.; application to foliage): 3 (Herbicidal ratio of 40% or more and less than 70%); herbicidal effect, J (Alopecurus myosuroides) (Alopecurus myosuroides; application to foliage): 1 (Herbicidal ratio of 5% or more and less than 20%)
COCCn1nnnc1NC(=O)c1ccc(C(F)(F)F)n2c(C(C)C)nnc12 [2-041] | 5 (Herbicidal ratio of 90% or more (almost completely withered)) | 5 (Herbicidal ratio of 90% or more (almost completely withered)) | 5 (Herbicidal ratio of 90% or more (almost completely withered)) | 5 (Herbicidal ratio of 90% or more (almost completely withered)) | 3 (Herbicidal ratio of 40% or more and less than 70%) | 4 (Herbicidal ratio of 70% or more and less than 90%) | 2 (Herbicidal ratio of 20% or more and less than 40%) | 4 (Herbicidal ratio of 70% or more and less than 90%) | 0 (Herbicidal ratio of 5% or less (almost no effect)) | 4 (Herbicidal ratio of 70% or more and less than 90%) | 3 (Herbicidal ratio of 40% or more and less than 70%) | 5 (Herbicidal ratio of 90% or more (almost completely withered)) | 3 (Herbicidal ratio of 40% or more and less than 70%) | 5 (Herbicidal ratio of 90% or more (almost completely withered)) | 5 (Herbicidal ratio of 90% or more (almost completely withered)) | 3 (Herbicidal ratio of 40% or more and less than 70%) | 4 (Herbicidal ratio of 70% or more and less than 90%) | 5 (Herbicidal ratio of 90% or more (almost completely withered)) | 4 (Herbicidal ratio of 70% or more and less than 90%) | 4 (Herbicidal ratio of 70% or more and less than 90%) | L (Apera spica-venti.) herbicidal effect grade (Apera spica-venti.): 4 (Herbicidal ratio of 70% or more and less than 90%); J (Alopecurus myosuroides) herbicidal effect grade (Alopecurus myosuroides): 3 (Herbicidal ratio of 40% or more and less than 70%)
CC(C)c1nnc2c(C(=O)Nc3nnnn3C)ccc(C(F)F)n12 [2-047] | 4 (Herbicidal ratio of 70% or more and less than 90%) | 5 (Herbicidal ratio of 90% or more (almost completely withered)) | 5 (Herbicidal ratio of 90% or more (almost completely withered)) | 5 (Herbicidal ratio of 90% or more (almost completely withered)) | 3 (Herbicidal ratio of 40% or more and less than 70%) | 3 (Herbicidal ratio of 40% or more and less than 70%) | 3 (Herbicidal ratio of 40% or more and less than 70%) | 3 (Herbicidal ratio of 40% or more and less than 70%) | 0 (Herbicidal ratio of 5% or less (almost no effect)) | 5 (Herbicidal ratio of 90% or more (almost completely withered)) | 1 (Herbicidal ratio of 5% or more and less than 20%) | 5 (Herbicidal ratio of 90% or more (almost completely withered)) | 3 (Herbicidal ratio of 40% or more and less than 70%) | 5 (Herbicidal ratio of 90% or more (almost completely withered)) | 5 (Herbicidal ratio of 90% or more (almost completely withered)) | 3 (Herbicidal ratio of 40% or more and less than 70%) | 5 (Herbicidal ratio of 90% or more (almost completely withered)) | 4 (Herbicidal ratio of 70% or more and less than 90%) | 3 (Herbicidal ratio of 40% or more and less than 70%) | 5 (Herbicidal ratio of 90% or more (almost completely withered)) | L (Apera spica-venti.) herbicidal effect grade (Apera spica-venti.): 3 (Herbicidal ratio of 40% or more and less than 70%); J (Alopecurus myosuroides) herbicidal effect grade (Alopecurus myosuroides): 1 (Herbicidal ratio of 5% or more and less than 20%)
